Reference: article PMC11578372, “ProT‐Diff: A Modularized and Efficient Strategy for De Novo Generation of Antimicrobial Peptide Sequences by Integrating Protein Language and Diffusion Models” (Advanced Science, 2024)
Like-named read-outs stand apart in the source and are kept apart here. Where no end group is shown, it is not given here.

Assays:
E. coli mgrB mutant 23# = test: Lethal murine acute peritonitis model; type: in vivo, mouse (female BALB/c); details: for survival versus PBS treatment group (log-rank test): AMP_2 single IP dose, penicillin 50000 units per kg every 12 h for 3 d
Experimental: Female BALB/c mice weighing ≈18 g and aged 5–6 weeks were used to build a lethal murine acute peritonitis model according to previously established protocols.^[ [43], [44], [45] ^] The mice were subjected to intraperitoneal injections with E. colimgrB mutant 23^#suspension (0.2 mL per mouse) at concentration of 5×10^5 CFU mL^−1, 5×10^6 CFU mL^−1, 5×10^7 CFU mL^−1, respectively. […] Each group comprised of eight mice.
Subsequently, the mice were administered varying doses of AMP_2 (0.125, 0.25, 0.5, 1, 2, and 4 mg kg^−1) immediately after infection. As controls, the infected mice received intraperitoneal injections of sterile PBS or underwent penicillin treatment (0.2 mL per mouse). The single dose of penicillin administered was 50000 units per kg, and the mice received antibiotic treatment every 12 h for 3 d. The behavior and survival of the animals were monitored over a 7‐day period. Blood samples were collected from the mice before euthanasia for routine blood tests. The experiments were conducted in groups of eight mice.

[1] = 1 µg mL−1 (0.35 µM); cited from earlier work
Source text: (§1) In general, a higher antimicrobial potency in antimicrobial peptides often correlates with an elevated risk of heightened cytotoxicity and hemolytic activity. […] However, even at a ...

E. coli [2] = details: cited from earlier work
Source text: as §1

human cell = details: 10 µg mL−1 (3.5 µM); cited from earlier work
Source text: as §1

E. coli [3] = type: cell-based, Escherichia coli
Experimental: (§2) For the MIC determination of selected AMPs, 100 ul bacterial culture with an OD600 value of ≈0.1 was incubated with AMPs at concentrations ranging from 0 to 100 µM at 37 °C for 15–18 h. Herein, the MIC was determined as the minimum concentration of AMPs at which no detectable bacterial growth was observed.
(§3) All experiments were conducted with a minimum of four independent replicates. Student's t‐test was used to compare the means between the experimental and control groups (two‐sided).

all tested bacteria = type: cell-based
Source text: Gram‐negative bacteria include E. coli DH5α, E. coli O157: H7 CICC 21530, S. typhimurium CICC 21484, A. baumannii AB6, and P. aeruginosa ATCC 15442. Gram‐positive bacteria included S. aureus ATCC 33591, Methicillin‐resistant MRSA ATCC 43300, B. subtilis ATCC 9372. L. sphaericus CCM 2177. Two E. coli clinical isolates with mgrB mutations from Tongji Hospital (Wuhan, China) were used in this study, namely E. coli mgrB mutant 2^# and E. coli mgrB mutant 23^#.
as §2, §3

[4] = Cytotoxicity against mammalian cells (CCK-8); type: cell-based; details: human, 293T, CCK-8, n = 6, read-out: half maximal inhibitory concentration (IC50), cytotoxicity
Experimental: Cell Counting Kit 8 (CCK‐8) assay was used to assess the cytotoxicity of the AMPs against mammalian cells. Specifically, ≈4000 293T cells were seeded per well in a 96‐well cell culture plate (Corning, US), and were incubated at 37 °C with 5% CO2 for 24 h. Subsequently, the culture medium was replaced by different concentrations of AMPs solution diluted with the medium. The cells were co‐incubated with AMPs solution for an additional 24 h at 37 °C. And then, 10 µl of the CCK‐8 reagent (Beijing Lablead Biotech, China) was added to each well for 2 h of incubation at 37 °C. Finally, OD at 450 nm was measured using an imaging multimode microplate reader (Cytation 3, BioTek, US). Cell viability was defined as the percentage of each concentration relative to the control. Six replicates were used for the CCK‐8 assay.

E. coli DH5α = test: TEM of cell membrane damage; type: cell-based, Escherichia coli; details: 1× MIC, 2–8 h, 37 °C
Experimental: Transmission Electron Microscopy (TEM) was employed to assess the cell membrane damage induced by AMPs. First, 50 µL of E. coli DH5α culture with an OD600 of ≈0.1 were mixed with 50 µL of AMPs solution (at 1× MIC) in a 96‐well plate. This mixture was incubated at 37 °C for 2, 4, 8, and 16 h. Following the incubation period, the bacteria were pelleted by centrifugation at 6,000 rpm for 5 min and fixed with 2.5% (vol/vol) glutaraldehyde in phosphate buffer (PB, 0.1 M, pH 7.4). Subsequently, the cells were postfixed with 1% (wt/vol) osmium tetraoxide in PB for 2 h at 4 °C, and were dehydrated through a graded ethanol series (30%, 50%, 70%, 80%, 90%, 100%, with each step lasting 7 min) before being put in pure acetone by two 10‐min steps. Following dehydration, the samples were subjected to infiltration using progressively mixed combinations of acetone and SPI‐PON812 resin (composed of 16.2 g SPI‐PON812, 10 g DDSA, and 8.9 g NMA) in ratios of 3:1, 1:1, and 1:3. The infiltration medium was then replaced with pure resin. Finally, the cells were embedded in pure resin containing 1.5% BDMA and polymerized for 12 h at 45 °C, followed by an additional 48 h polymerization at 60 °C. Ultrathin sections (70 nm thick) were obtained using a microtome (Leica EM UC6), double‐stained with uranyl acetate and lead citrate, and examined using a transmission electron microscope (FEI Tecnai Spirit 120 kV).

Substance | survival versus PBS treatment group (log-rank test) (E. coli mgrB mutant 23#; 8 mice per group) | hemolysis of cells [1] [%] | MIC (E. coli [2]) [µM] | human cell death (human cell) [%] | MIC (E. coli [3]) [µM] | MIC / spectrum against the tested bacteria (all tested bacteria) [µM] | IC50 at 24 h [4] [µM] | bacterial morphology by TEM (E. coli DH5α) | body weight by the sixth day post-infection (E. coli mgrB mutant 23#; 4 mg kg−1 IP, surviving infected mice) | routine blood components, treatment versus control group (E. coli mgrB mutant 23#; blood collected before euthanasia, infected mice treated with AMP_2) | protection of infected mice (survival) (E. coli mgrB mutant 23#; single IP dose 0.5 mg kg−1 immediately after infection, 5×10^5 CFU mL−1, 7-day observation, 8 mice per group)
penicillin [reference compound] | no significant difference | – | – | – | – | – | – | – | – | – | –
melittin | – | 50 | 1 to 15 | > 50 | – | – | – | – | – | – | –
KWKFFKKIRKVGKKIRKVIKKIGKAVGAAAQAAGQAANA [AMP_2] | significant differences in survival | – | – | – | 2.5 | ≤ 20 | > 40 | serious leakage of cellular contents | slight decrease in body weight | not significantly different | complete protection
